Experiments:
[1] = target: Beta-1 adrenergic receptor (Homo sapiens, UniProt P08588); assay type: functional, cell-based
[2] = target: T1, Peroxisome proliferator-activated receptor alpha (Homo sapiens, UniProt Q07869); assay type: functional
T1 sequence (Q07869 whole entry): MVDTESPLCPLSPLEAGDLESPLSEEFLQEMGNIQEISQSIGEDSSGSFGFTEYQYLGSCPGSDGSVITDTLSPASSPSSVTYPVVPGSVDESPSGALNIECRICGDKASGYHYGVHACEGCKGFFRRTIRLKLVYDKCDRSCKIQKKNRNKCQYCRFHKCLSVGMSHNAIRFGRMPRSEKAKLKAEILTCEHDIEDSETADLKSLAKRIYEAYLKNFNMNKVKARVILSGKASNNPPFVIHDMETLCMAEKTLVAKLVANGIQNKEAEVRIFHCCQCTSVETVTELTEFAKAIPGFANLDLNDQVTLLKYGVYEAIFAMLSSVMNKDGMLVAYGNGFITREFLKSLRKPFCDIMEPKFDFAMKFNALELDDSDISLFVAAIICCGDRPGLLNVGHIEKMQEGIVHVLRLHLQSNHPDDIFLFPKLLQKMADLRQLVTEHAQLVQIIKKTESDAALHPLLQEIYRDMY

[3] = target: Voltage-dependent L-type calcium channel subunit alpha-1C (Homo sapiens, UniProt Q13936); assay type: functional, cell-based
[4] = target: 5-hydroxytryptamine receptor 2A (Homo sapiens, UniProt P28223)
[5] = target: D(1A) dopamine receptor (Homo sapiens, UniProt P21728)
[6] = target: T2, Muscarinic acetylcholine receptor M2 (Homo sapiens, UniProt P08172)
T2 sequence (P08172 whole entry): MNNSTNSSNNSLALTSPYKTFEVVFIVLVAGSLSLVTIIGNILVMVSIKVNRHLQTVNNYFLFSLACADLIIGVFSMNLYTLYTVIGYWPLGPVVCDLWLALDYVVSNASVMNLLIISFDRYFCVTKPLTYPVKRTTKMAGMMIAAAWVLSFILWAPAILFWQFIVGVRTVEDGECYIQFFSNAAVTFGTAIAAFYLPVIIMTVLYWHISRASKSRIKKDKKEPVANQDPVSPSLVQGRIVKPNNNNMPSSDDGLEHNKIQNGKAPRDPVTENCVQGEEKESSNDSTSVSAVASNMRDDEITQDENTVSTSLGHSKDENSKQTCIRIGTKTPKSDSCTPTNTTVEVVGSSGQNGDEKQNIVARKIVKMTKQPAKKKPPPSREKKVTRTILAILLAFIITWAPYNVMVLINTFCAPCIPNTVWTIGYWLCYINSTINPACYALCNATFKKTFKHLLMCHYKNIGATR

[7] = target: T3, Alpha-1A adrenergic receptor (Homo sapiens, UniProt P35348)
T3 sequence (P35348 whole entry): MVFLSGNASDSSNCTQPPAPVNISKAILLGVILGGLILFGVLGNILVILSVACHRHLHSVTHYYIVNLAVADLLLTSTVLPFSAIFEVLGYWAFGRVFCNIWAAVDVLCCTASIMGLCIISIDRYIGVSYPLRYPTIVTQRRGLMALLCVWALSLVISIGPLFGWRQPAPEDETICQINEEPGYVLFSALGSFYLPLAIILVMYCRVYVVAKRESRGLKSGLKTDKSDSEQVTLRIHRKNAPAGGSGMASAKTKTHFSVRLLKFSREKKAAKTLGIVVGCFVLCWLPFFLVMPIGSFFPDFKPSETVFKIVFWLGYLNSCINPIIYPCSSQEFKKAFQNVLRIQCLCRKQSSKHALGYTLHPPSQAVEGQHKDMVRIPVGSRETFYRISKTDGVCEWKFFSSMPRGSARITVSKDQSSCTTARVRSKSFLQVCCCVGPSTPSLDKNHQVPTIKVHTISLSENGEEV

[8] = target: Gamma-aminobutyric acid type B receptor subunit 1 (Homo sapiens, UniProt Q9UBS5)
[9] = target: T4, 5-hydroxytryptamine receptor 1A (Homo sapiens, UniProt P08908)
T4 sequence (P08908 whole entry): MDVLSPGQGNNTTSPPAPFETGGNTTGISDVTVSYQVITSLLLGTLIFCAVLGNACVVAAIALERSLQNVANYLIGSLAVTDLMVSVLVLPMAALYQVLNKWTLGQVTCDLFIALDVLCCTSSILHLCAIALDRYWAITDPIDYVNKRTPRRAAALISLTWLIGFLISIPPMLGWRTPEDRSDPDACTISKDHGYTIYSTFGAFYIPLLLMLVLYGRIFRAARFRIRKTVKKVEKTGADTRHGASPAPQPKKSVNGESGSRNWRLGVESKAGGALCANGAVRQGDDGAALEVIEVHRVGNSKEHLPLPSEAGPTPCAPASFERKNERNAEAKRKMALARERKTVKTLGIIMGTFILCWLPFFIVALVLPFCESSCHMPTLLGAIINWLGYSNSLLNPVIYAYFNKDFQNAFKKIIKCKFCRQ

[10] = target: 5-hydroxytryptamine receptor 7 (Homo sapiens, UniProt P34969)
[11] = target: 5-hydroxytryptamine receptor 6 (Homo sapiens, UniProt P50406)
[12] = target: T5, Muscarinic acetylcholine receptor M5 (Homo sapiens, UniProt P08912)
T5 sequence (P08912 whole entry): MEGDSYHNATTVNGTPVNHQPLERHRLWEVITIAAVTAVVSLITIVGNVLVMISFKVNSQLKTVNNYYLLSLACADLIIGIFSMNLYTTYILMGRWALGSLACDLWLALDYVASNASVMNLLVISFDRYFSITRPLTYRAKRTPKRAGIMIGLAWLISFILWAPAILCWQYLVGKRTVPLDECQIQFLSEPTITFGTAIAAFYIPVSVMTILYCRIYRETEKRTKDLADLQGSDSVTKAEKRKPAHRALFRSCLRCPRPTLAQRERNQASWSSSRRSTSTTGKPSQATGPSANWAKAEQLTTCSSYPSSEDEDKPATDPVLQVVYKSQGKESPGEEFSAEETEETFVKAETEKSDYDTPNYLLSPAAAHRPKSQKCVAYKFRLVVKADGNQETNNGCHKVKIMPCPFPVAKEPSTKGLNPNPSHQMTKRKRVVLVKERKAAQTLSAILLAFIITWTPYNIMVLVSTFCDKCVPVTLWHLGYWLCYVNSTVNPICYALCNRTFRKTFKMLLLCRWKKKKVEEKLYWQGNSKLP
Further: assay procedure not described here.

5-hydroxytryptamine receptor 6, sequence (P50406 whole entry): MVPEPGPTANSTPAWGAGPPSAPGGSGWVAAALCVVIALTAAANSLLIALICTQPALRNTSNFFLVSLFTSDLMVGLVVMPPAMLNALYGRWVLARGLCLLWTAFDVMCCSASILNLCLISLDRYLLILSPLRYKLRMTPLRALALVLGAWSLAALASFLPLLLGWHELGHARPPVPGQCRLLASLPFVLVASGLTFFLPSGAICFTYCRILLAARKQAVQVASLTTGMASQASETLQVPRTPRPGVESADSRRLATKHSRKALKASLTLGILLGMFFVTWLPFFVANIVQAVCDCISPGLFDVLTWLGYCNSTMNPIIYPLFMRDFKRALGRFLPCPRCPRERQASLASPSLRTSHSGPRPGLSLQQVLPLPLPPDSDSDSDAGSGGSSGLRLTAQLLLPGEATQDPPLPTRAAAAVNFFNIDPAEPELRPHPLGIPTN
5-hydroxytryptamine receptor 7, sequence (P34969 whole entry): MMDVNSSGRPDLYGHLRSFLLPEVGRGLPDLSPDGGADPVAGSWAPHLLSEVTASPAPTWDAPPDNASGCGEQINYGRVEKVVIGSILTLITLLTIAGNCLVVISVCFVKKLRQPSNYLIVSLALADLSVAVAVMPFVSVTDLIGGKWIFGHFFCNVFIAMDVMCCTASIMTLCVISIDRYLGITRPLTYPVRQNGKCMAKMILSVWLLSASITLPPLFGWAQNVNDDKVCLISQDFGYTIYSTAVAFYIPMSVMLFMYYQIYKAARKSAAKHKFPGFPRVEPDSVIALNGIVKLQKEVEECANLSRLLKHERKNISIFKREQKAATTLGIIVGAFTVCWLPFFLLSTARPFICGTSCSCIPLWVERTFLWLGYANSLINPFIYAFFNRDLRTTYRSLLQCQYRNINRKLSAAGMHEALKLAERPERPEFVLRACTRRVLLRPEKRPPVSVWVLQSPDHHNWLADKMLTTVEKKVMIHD
Gamma-aminobutyric acid type B receptor subunit 1, sequence (Q9UBS5 whole entry): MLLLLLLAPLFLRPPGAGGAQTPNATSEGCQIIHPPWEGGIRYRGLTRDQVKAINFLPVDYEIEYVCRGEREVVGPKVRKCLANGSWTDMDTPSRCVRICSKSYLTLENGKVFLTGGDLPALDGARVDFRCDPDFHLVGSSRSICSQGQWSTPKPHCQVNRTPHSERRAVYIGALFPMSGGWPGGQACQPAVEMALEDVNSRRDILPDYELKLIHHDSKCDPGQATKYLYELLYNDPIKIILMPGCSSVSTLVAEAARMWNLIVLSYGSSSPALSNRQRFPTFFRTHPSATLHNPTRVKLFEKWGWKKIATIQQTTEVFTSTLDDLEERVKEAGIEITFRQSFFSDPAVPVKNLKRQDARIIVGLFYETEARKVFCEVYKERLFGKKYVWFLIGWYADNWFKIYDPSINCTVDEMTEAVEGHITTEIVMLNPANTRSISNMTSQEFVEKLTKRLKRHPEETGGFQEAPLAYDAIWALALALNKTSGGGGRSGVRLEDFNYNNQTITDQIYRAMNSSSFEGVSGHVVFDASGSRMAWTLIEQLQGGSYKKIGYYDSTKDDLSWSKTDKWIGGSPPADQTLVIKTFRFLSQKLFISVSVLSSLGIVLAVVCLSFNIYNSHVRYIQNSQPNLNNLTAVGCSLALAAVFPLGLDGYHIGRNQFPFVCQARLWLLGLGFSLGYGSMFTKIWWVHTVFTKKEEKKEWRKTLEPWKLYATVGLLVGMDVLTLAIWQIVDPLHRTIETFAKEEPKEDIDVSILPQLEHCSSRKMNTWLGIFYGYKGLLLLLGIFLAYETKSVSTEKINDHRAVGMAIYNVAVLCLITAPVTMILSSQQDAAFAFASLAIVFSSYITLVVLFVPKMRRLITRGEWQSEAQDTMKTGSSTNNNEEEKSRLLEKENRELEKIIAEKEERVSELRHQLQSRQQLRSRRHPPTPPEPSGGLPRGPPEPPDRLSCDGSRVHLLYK
5-hydroxytryptamine receptor 2A, sequence (P28223 whole entry): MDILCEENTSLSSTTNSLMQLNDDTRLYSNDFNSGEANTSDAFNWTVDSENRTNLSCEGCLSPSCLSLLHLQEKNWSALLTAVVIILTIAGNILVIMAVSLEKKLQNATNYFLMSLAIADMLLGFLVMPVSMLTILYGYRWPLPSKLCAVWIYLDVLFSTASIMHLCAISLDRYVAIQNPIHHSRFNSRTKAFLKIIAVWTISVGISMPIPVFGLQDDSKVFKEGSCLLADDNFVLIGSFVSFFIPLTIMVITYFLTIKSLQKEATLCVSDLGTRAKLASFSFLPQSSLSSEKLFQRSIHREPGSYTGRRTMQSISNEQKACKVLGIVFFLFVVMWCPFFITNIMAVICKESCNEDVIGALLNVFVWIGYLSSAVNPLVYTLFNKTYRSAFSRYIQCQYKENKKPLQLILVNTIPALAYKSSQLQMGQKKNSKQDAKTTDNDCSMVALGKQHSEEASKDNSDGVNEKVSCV
D(1A) dopamine receptor, sequence (P21728 whole entry): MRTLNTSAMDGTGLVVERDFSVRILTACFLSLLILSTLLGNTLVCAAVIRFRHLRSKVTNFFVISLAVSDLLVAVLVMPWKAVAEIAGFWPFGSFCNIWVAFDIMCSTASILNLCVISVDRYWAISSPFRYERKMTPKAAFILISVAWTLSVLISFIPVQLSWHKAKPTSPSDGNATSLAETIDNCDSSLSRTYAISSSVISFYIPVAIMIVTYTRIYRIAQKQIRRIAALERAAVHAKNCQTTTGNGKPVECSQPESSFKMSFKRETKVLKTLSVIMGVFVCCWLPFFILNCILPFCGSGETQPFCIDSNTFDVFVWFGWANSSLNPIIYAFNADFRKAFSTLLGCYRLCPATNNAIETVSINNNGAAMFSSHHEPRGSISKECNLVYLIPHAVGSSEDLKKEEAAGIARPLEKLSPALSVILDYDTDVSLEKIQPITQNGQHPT
Voltage-dependent L-type calcium channel subunit alpha-1C, sequence (Q13936 whole entry): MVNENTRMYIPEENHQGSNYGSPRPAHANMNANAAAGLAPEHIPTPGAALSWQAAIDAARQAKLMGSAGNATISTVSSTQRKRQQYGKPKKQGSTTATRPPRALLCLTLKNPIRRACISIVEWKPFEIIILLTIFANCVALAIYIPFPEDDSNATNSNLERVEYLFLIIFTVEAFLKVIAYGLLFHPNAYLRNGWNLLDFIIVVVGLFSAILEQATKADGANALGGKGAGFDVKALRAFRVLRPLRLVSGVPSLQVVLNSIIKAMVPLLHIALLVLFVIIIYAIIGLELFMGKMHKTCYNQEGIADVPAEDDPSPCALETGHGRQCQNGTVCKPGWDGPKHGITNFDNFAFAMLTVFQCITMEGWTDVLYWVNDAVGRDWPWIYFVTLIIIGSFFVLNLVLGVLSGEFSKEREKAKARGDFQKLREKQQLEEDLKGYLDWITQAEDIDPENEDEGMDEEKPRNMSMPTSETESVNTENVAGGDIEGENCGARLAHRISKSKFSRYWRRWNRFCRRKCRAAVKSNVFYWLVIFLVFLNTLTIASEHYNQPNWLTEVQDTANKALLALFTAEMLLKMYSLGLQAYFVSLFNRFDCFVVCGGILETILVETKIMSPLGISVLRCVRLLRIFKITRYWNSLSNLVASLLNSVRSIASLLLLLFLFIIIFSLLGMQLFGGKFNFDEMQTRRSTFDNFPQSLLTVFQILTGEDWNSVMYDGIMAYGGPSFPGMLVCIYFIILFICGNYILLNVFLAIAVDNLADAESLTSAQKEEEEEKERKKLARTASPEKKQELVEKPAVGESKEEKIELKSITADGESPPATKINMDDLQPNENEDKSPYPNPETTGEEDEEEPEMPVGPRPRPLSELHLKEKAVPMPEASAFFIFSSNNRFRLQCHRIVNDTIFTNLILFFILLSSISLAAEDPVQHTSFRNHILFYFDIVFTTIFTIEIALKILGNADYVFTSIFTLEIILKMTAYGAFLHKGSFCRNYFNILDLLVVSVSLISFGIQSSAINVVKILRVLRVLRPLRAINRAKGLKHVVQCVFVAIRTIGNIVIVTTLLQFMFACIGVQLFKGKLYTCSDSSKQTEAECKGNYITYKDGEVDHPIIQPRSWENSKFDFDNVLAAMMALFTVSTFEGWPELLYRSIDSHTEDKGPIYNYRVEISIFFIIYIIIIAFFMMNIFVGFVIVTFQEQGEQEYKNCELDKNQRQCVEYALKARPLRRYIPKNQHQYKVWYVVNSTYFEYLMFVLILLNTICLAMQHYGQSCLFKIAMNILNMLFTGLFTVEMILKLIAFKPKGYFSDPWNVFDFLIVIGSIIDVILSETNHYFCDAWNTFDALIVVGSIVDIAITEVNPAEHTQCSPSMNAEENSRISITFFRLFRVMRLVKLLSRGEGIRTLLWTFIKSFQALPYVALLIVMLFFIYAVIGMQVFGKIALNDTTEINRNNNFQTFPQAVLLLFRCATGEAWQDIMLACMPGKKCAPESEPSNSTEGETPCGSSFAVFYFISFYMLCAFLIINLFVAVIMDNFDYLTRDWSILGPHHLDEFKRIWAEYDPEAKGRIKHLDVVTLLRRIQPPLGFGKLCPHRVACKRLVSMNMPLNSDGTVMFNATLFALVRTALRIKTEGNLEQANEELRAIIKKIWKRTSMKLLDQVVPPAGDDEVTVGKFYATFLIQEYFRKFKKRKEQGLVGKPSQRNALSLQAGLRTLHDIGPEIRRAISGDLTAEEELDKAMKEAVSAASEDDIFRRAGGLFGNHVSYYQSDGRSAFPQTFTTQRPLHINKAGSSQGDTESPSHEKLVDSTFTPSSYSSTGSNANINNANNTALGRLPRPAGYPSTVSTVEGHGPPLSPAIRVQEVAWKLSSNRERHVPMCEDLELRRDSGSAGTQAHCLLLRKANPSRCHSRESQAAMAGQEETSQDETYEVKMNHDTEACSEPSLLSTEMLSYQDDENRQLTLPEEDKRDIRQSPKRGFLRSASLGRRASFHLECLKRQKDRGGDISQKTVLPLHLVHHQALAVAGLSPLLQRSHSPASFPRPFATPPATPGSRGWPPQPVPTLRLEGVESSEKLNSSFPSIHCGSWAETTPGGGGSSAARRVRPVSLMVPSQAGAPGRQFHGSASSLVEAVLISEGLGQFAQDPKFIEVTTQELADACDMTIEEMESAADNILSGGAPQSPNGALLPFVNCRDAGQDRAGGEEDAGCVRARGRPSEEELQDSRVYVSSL

## CCOC(=O)Nc1ccc(NCc2ccc(F)cc2)nc1N [FLUPIRTINE]
[1]
  AC50: > 30 µM

## CC(C)/N=c1\cc2n(-c3ccc(Cl)cc3)c3ccccc3nc-2cc1Nc1ccc(Cl)cc1 [CLOFAZIMINE]
[1]
  AC50: > 30 µM
[2]
  AC50: > 30 µM

## CN(C)CCC=C1c2ccccc2CCc2ccccc21 [AMITRIPTYLINE]
[3]
  AC50: 32 µM

## CC(=O)SCC(Cc1ccccc1)C(=O)NCC(=O)OCc1ccccc1 (configuration not stated) [RACECADOTRIL]
[4]
  AC50: > 10 µM
[2]
  AC50: > 30 µM

## N#Cc1ccnc(N2C(=O)CC[C@H]2C(=O)N(c2cncc(F)c2)[C@H](C(=O)NC2CC(F)(F)C2)c2ccccc2Cl)c1 [IVOSIDENIB]
[3]
  AC50: > 50 µM

## CN1CC2c3ccccc3Oc3ccc(Cl)cc3C2C1 (configuration not stated) [ASENAPINE]
[5]
  AC50: 0.01 µM

## CC#CC(=O)N1CCC[C@H]1c1nc(-c2ccc(C(=O)Nc3ccccn3)cc2)c2c(N)nccn12 [ACALABRUTINIB]
[6]
  AC50: > 30 µM

## CC(=O)Oc1ccccc1C(=O)O [ASPIRIN]
[7]
  AC50: > 10 µM
[8]
  AC50: > 10 µM
[6]
  AC50: > 30 µM
[5]
  AC50: > 30 µM
[9]
  AC50: > 30 µM
[10]
  AC50: > 10 µM
[11]
  AC50: > 10 µM

## OCCOCCN1CCN(C(c2ccccc2)c2ccc(Cl)cc2)CC1 (configuration not stated) [HYDROXYZINE]
[7]
  AC50: 0.546 µM
[4]
  AC50: 0.146 µM
[10]
  AC50: 6.8 µM
[11]
  AC50: 2.2 µM

## CCOC(=O)[C@H](CCc1ccccc1)N[C@@H](C)C(=O)N1Cc2ccccc2C[C@H]1C(=O)O
[7]
  AC50: > 10 µM
[8]
  AC50: > 10 µM
[12]
  AC50: > 10 µM
[10]
  AC50: > 10 µM
[11]
  AC50: > 10 µM

## C[C@]12CCC(=O)C=C1CC[C@H]1[C@@H]3CC[C@](O)(C(=O)CO)[C@@]3(C)C[C@H](O)[C@@]12F [FLUDROCORTISONE]
[4]
  AC50: > 10 µM

## NCC1(CC(=O)O)CCCCC1 [GABAPENTIN]
[7]
  AC50: > 10 µM
[8]
  AC50: > 10 µM
[6]
  AC50: > 30 µM
[5]
  AC50: > 30 µM
[9]
  AC50: > 30 µM
[12]
  AC50: > 10 µM
[10]
  AC50: > 10 µM
[11]
  AC50: > 10 µM

## CCN(CC)CCn1c(=O)c(Cc2ccc(OC)cc2)nc2ccccc21 [CAROVERINE]
[1]
  AC50: > 30 µM

## CCOc1ccccc1OCCN[C@H](C)Cc1ccc(OC)c(S(N)(=O)=O)c1 [TAMSULOSIN]
[4]
  AC50: 14.4 µM

## Cc1c(C)c2c(c(C)c1O)CCC(C)(COc1ccc(CC3SC(=O)NC3=O)cc1)O2 (configuration not stated) [TROGLITAZONE]
[8]
  AC50: > 10 µM

## C=CC1=C(C(=O)O)N2C(=O)[C@@H](NC(=O)/C(=N\O)c3csc(N)n3)[C@H]2SC1
[4]
  AC50: > 10 µM

## CC(=O)NC[C@H]1CN(c2ccc(N3CCOCC3)c(F)c2)C(=O)O1 [LINEZOLID]
[3]
  AC50: > 50 µM

## Cn1cnc2c(F)c(Nc3ccc(Br)cc3F)c(C(=O)NOCCO)cc21 [BINIMETINIB]
[3]
  AC50: > 50 µM

## Nc1nnc(-c2cccc(Cl)c2Cl)c(N)n1 [LAMOTRIGINE]
[7]
  AC50: 11.1 µM
[3]
  AC50: > 50 µM
